Source: patent publication US20090247559A1 (Exelixis, Inc., priority 2007, published 2009)

These compounds were tested against PIM (PIM-1, PIM-2, and/or PIM-3) (assay: PIM-1, PIM-2 and PIM-3 inhibition, biochemical chemiluminescence assays (Kinase Glo, IC50 determination)). Details: Table 1 activity class; PIM refers to PIM-1, PIM-2, and/or PIM-3; read-out: PIM IC50 (Activity B).
Description: (§1) The IC50 evaluation of compounds against the PIM-1 oncogene was performed in a Chemiluminesence assay utilizing a Greiner 384-well white medium binding white plate format. […] Following an incubation period of 120 minutes at ambient temperature (24-27° C.), 10 μL of Kinase Glo (Promega) was added. The luminescence was measured following a Luminescence Protocol on a Victor plate reader.
as §1, with “PIM-2” for “PIM-1”, “format. […] The assay procedure involves compound dilution followed by addition of 3 nM PIM-2 to the designated well plates and subsequent pre-incubation of the compounds with the enzyme for 30 minutes at ambient temperature (24-27° C.).” for “format.”
as §1, with “PIM-3 Oncogene” for “PIM-1 oncogene”

| Compound | IC50 [µM] |
| --- | --- |
| C[C@@H]1CN(Cc2nc3c(oc4ccc(Br)cc43)c(=O)[nH]2)C[C@H](C)N1 [Compound 296, 8-bromo-2-{[(3R,5S)-3,5-dimethylpiperazin-1-yl]methyl}[1]benzofuro[3,2-d]pyrimidin-4(3H)-one] | < 10 |
| O=c1[nH]c(CN2CC[C@H](O)C2)nc2c1oc1ccc(NC3CCCCC3)cc12 [Compound 449, 8-(cyclohexylamino)-2-{[(3S)-3-hydroxypyrrolidin-1-yl]methyl}[1]benzofuro[3,2-d]pyrimidin-4(3H)-one] | < 10 |
| CN1CCN(C(=O)c2nc3c(oc4ccc(Br)cc43)c(=O)[nH]2)CC1 [Compound 106, 8-Bromo-2-[(4-methylpiperazin-1-yl)carbonyl][1]benzofuro[3,2-d]pyrimidin-4(3H)-one] | < 10 |
| CNC(=O)c1ccc2oc3c(=O)[nH]c(-c4ccccc4Cl)nc3c2c1 [Compound 97, 2-(2-chlorophenyl)-N-methyl-4-oxo-3,4-dihydrobenzofuro[3,2-d]pyrimidine-8-carboxamide] | < 10 |
| O=C(COc1cccc(-c2nc3c(oc4ccc(Br)cc43)c(=O)[nH]2)c1)NCC1CC1 [Compound 98, 2-{[3-(8-bromo-4-oxo-3,4-dihydro[1]benzofuro[3,2-d]pyrimidin-2-yl)phenyl]oxy}-N-(cyclopropylmethyl)acetamide] | < 10 |
| O=c1[nH]c(-c2ccc(Cl)cc2)nc2c1oc1ccc(Br)cc12 [Compound 94, 8-Bromo-2-(4-chlorophenyl)[1]benzofuro[3,2-d]pyrimidin-4(3H)-one] | < 10 |
| CN1CCN(C(c2ccccc2)c2nc3c(oc4ccc(Br)cc43)c(=O)[nH]2)CC1 (stereo not shown) [Compound 188, 8-bromo-2-[(4-methylpiperazin-1-yl)(phenyl)methyl][1]benzofuro[3,2-d]pyrimidin-4(3H)-one] | < 10 |
| CN(C)CCCNC(=O)[C@@H]1CCCN1Cc1nc2c(oc3ccc(Br)cc32)c(=O)[nH]1 [Compound 20, 1-[(8-bromo-4-oxo-3,4-dihydro[1]benzofuro[3,2-d]pyrimidin-2-yl)methyl]-N-[3-(dimethylamino)propyl]prolinamide] | < 10 |
| CCN(CC)CC(=O)N1CCN(Cc2nc3c(oc4ccc(Br)cc43)c(=O)[nH]2)CC1 [Compound 26, 8-bromo-2-{[4-(N,N-diethylglycyl)piperazin-1-yl]methyl}[1]benzofuro[3,2-d]pyrimidin-4(3H)-one] | < 10 |
| COC(=O)c1ccc(-c2nc3c(oc4ccccc43)c(=O)[nH]2)cc1 [Compound 53, methyl 4-(4-oxo-3,4-dihydro[1]benzofuro[3,2-d]pyrimidin-2-yl)benzoate] | < 10 |
| O=c1[nH]c(-c2ccc3nc[nH]c3c2)nc2c1oc1ccc(Br)cc12 [Compound 423, 2-(1H-benzimidazol-6-yl)-8-bromo[1]benzofuro[3,2-d]pyrimidin-4(3H)-one] | < 10 |
| O=c1[nH]c(C(c2ccccc2)N2CCNCC2)nc2c1oc1ccc(Br)cc12 (stereo not shown) [Compound 384, 8-bromo-2-[phenyl(piperazin-1-yl)methyl][1]benzofuro[3,2-d]pyrimidin-4(3H)-one] | < 10 |
| O=C(Nc1ccc(Cl)c(-c2nc3c(oc4ccc(Br)cc43)c(=O)[nH]2)c1)c1cccnc1 [Compound 327, N-[3-(8-bromo-4-oxo-3,4-dihydro[1]benzofuro[3,2-d]pyrimidin-2-yl)-4-chlorophenyl]pyridine-3-carboxamide] | < 10 |
| O=c1[nH]c(-c2cn3c(n2)CNCC3)nc2c1oc1ccc(Br)cc12 [Compound 301, 8-Bromo-2-(5,6,7,8-tetrahydroimidazo[1,2-a]pyrazin-2-yl)[1]benzofuro[3,2-d]pyrimidin-4(3H)-one] | < 10 |
| O=C(Nc1ccc(Cl)c(-c2nc3c(oc4ccc(Br)cc43)c(=O)[nH]2)c1)c1ccc(Br)cn1 [Compound 338, 5-bromo-N-[3-(8-bromo-4-oxo-3,4-dihydro[1]benzofuro[3,2-d]pyrimidin-2-yl)-4-chlorophenyl]pyridine-2-carboxamide] | < 10 |
| CN(C)CCN1CCN(Cc2nc3c(oc4ccc(Br)cc43)c(=O)[nH]2)CC1 [Compound 81, 8-bromo-2-({4-[2-(dimethylamino)ethyl]piperazin-1-yl}methyl)[1]benzofuro[3,2-d]pyrimidin-4(3H)-one] | < 10 |
| O=c1[nH]c(CNc2ccc(F)cc2)nc2c1oc1ccc(Br)cc12 [Compound 22, 8-bromo-2-{[(4-fluorophenyl)amino]methyl}[1]benzofuro[3,2-d]pyrimidin-4(3H)-one] | < 10 |
| NC1C[C@H]2CC[C@@H](C1)N2Cc1nc2c(oc3ccc(Br)cc32)c(=O)[nH]1 (stereo partly drawn) [Compound 131, 2-{[(1R,5S)-3-Amino-8-azabicyclo[3.2.1]oct-8-yl]methyl}-8-bromo[1]benzofuro[3,2-d]pyrimidin-4(3H)-one] | < 10 |
| O=c1[nH]c(CN2CCC(N3CCCCC3)CC2)nc2c1oc1ccc(Br)cc12 [Compound 202, 2-(1,4′-bipiperidin-1′-ylmethyl)-8-bromo[1]benzofuro[3,2-d]pyrimidin-4(3H)-one] | < 10 |
| C[C@@H]1CN(Cc2nc3c(oc4ccc(Br)cc43)c(=O)[nH]2)C[C@H](C)N1C [Compound 316, 8-bromo-2-{[(3R,5S)-3,4,5-trimethylpiperazin-1-yl]methyl}[1]benzofuro[3,2-d]pyrimidin-4(3H)-one] | < 10 |
| O=C(Nc1ccc(Cl)c(-c2nc3c(oc4ccc(Br)cc43)c(=O)[nH]2)c1)C1CCNCC1 [Compound 392, ′N-[3-(8-bromo-4-oxo-3,4-dihydro[1]benzofuro[3,2-d]pyrimidin-2-yl)-4-chlorophenyl]piperidine-4-carboxamide] | < 10 |
| CN(C)c1cccc(NCc2nc3c(oc4ccc(Br)cc43)c(=O)[nH]2)c1 [Compound 76, 8-bromo-2-({[3-(dimethylamino)phenyl]amino}methyl)[1]benzofuro[3,2-d]pyrimidin-4(3H)-one] | < 10 |
| CC(C)COc1cnccc1-c1nc2c(oc3ccc(Br)cc32)c(=O)[nH]1 [Compound 219, 8-bromo-2-{3-[(2-methylpropyl)oxy]pyridin-4-yl}[1]benzofuro[3,2-d]pyrimidin-4(3H)-one] | < 10 |
| CN1CCC(N2CCN(Cc3nc4c(oc5ccc(Br)cc54)c(=O)[nH]3)CC2)CC1 [Compound 84, 8-bromo-2-{[4-(1-methylpiperidin-4-yl)piperazin-1-yl]methyl}[1]benzofuro[3,2-d]pyrimidin-4(3H)-one] | < 10 |
| CN1CCN(C(Cc2ccccc2)c2nc3c(oc4ccc(Br)cc43)c(=O)[nH]2)CC1 (stereo not shown) [Compound 215, 8-bromo-2-[1-(4-methylpiperazin-1-yl)-2-phenylethyl][1]benzofuro[3,2-d]pyrimidin-4(3H)-one] | < 10 |
| Nc1ccc(-c2nc3c(oc4ccccc43)c(=O)[nH]2)c(Cl)c1 [Compound 399, 2-(4-amino-2-chlorophenyl)[1]benzofuro[3,2-d]pyrimidin-4(3H)-one] | < 10 |
| O=c1[nH]c(CN2CCN(c3cccc(Cl)c3)CC2)nc2c1oc1ccc(Br)cc12 [Compound 278, 8-bromo-2-{[4-(3-chlorophenyl)piperazin-1-yl]methyl}[1]benzofuro[3,2-d]pyrimidin-4(3H)-one] | < 10 |
| CN(C)CCNCc1nc2c(oc3ccc(Br)cc32)c(=O)[nH]1 [Compound 200, 8-bromo-2-({[2-(dimethylamino)ethyl]amino}methyl)[1]benzofuro[3,2-d]pyrimidin-4(3H)-one] | < 10 |
